Source: patent publication US11215608B2, “Methods of determining cellular chemosensitivity” (Dana-Farber Cancer Institute, Inc., priority 2006, dated 2022)
Ends that are not written are not given here. Peptide text beside a SMILES is read from it. * marks the point of attachment. Cbz = O=C(OCc1ccccc1)*; CH2F = FC*

Tests used:
mouse liver mitochondria = test: Cytochrome c release from mouse liver mitochondria; format: biochemical; details: no tBID, also at 10-fold higher concentrations
Procedure: (§1) Mitochondria were purified from liver and FL5.12cells as previously described (Letai et al., 2002). Mitochondria were purified from leukemia cells and 2B4 cells as previously described for FL5.12 cells. Mitochondria were incubated with treatments for 45 (mouse liver mitochondria) or 35 minutes (FL5.12, 2B4, and leukemic mitochondria). Release of cytochrome c was determined by a comparison of cytochrome c in the pellet and supernatant following treatment, quantitated by ELISA (R&D systems). When results of multiple experiments were averaged, results from solvent-only (DMSO) treatments values were subtracted from each, so that 0 release reflects that observed in solvent-only treatments.
To test if selective binding corresponded to ability of individual BH3 domains to selectively antagonize antiapoptotic function, a purified mitochondrial system was constructed in which the critical apoptosis decision making molecular machinery was reconstituted. […] The multidomain proapoptotic function was provided by the BAK which resides in mouse liver Mitochondria; mouse liver mitochondria contain no detectable BAX protein (Letai et al., 2002). The dominant antiapoptotic function was provided by one of the five different recombinant antiapoptotic proteins used in the binding assays. BH3 peptides provided the sensitizer function.
Furthermore, when the panel of sensitizer BH3 peptides was tested in the presence of the antiapoptotic protein BCL-XL, there was still no cytochrome c release, formally ruling out the possibility that the BH3 peptides were somehow directly converting antiapoptotic proteins to a proapoptotic function (FIG. 2). To induce MOMP and cytochrome c release, there appears to be an absolute requirement for an activator function, here provided by the tBID protein.

CLL mitochondria = test: Cytochrome c release from CLL mitochondria; format: biochemical, human; details: peptides or compounds 100 μM
Procedure: Alternatively, mitochondria were purified from freshly isolated CLL cells and cell lines by mechanical disruption followed by differential centrifugation, as previously described (Letai et al., 2002). Mitochondrial suspensions were made at 0.5 mg protein/ml, except for the case of ABT-737 and negative control enantiomer treatments, where 0.1 mg/ml was used. Release of cytochrome c was determined by a comparison of cytochrome c in the pellet and supernatant quantitated by ELISA (R&D systems).
CLL mitochondria were incubated with BH3 peptides as well as ABT-737 and negative control enantiomer (FIG. 14). […] This pattern is diagnostic of mitochondrial BCL-2 dependence. […] Since the BH3 peptides in the sensitizer panel lack the ability to directly activate BAX and BAK, these experiments also implicated the presence of an activator molecule constitutively sequestered by BCL-2 in CLL.

[1] = test system: mitochondria from FL5.12 cells; test: Cytochrome c release from FL5.12 mitochondria; format: biochemical, murine
Procedure: as §1, with “systems).” for “systems). When results of multiple experiments were averaged, results from solvent-only (DMSO) treatments values were subtracted from each, so that 0 release reflects that observed in solvent-only treatments.”
Mitochondria were isolated from wt FL5.12 cells and FL5.12-BCL-2 cells in the presence of IL-3, and from FL5.12-BCL-2 cells following 24 hours of IL-3 deprivation. […] Mitochondrial pellets were subjected to chemical crosslinking as previously described (Letai et al., 2002).

SU-DHL8 = test: BH3 profiling, cytochrome c release from lymphoma mitochondria; format: biochemical; details: SU-DHL-8
Text: (§2) BH3 profiling allows for the prediction of response of cancer cells to anti-cancer therapeutics. For the purposes of this application, therapeutics can be divided into those that target anti-apoptotic BCL-2 proteins, and conventional agents. As a model test system, four lymphoma cell lines SU-DHL4, SU-DHL6, SU-DHL8, and SU-DHL 10 were employed. To perform BH3 profiling, the ability of a panel of sensitizer peptides to induce mitochondrial outer membrane permeabilization (MOMP) in mitochondria isolated from the lymphoma cells were tested. […] MOMP was measured by quantifying cytochrome c release by ELISA.

SU-DHL6 = test: as above; format: biochemical; details: SU-DHL 6
Text: as §2
SU-DHL4 and SU-DHL6 a “primed” phenotype, based on the sensitivity to sensitizer BH3 peptides. […] SU-DHL-10 responded poorly to both sensitizer and activator peptides, indicating the loss of the effector arm.

leukemic mitochondria = test: Cytochrome c release from BCL-2 dependent leukemia mitochondria; format: biochemical, mouse
Procedure: as §1
Leukemia prone mice were generated as previously described (Letai, 2004). Mouse experimental protocols conform to the relevant regulatory standards and were approved by the Dana-Farber Cancer Institute Animal Care and Use Committee.
Previous results have described a mouse acute lymphocytic leukemia model in which c-myc is constitutively expressed and human BCL-2 is repressibly expressed. In this model, when BCL-2 transgene expression is eliminated by administration of doxycycline, the leukemic cells undergo apoptosis, resulting in rapid resolution of the leukemia (Letai, 2004). This provides an ideal in vivo model of a BCL-2 dependent cancer. It was hypothesized that dependence on BCL-2 was due to a similar mechanism to that of the IL-3 deprived FL5.12-BCL-2 cells—that is, a death signal was being initiated and carried by an activator BH3 molecule, but BCL-2 was binding it and preventing its interaction with multidomain proapoptotic proteins.
Mitochondria were isolated from leukemia cells and exposed to sensitizer BH3 peptides. Subsequently, cytochrome c release was measured. As an internal control, mitochondria were isolated from liver from the leukemic mice in parallel (FIG. 8A).

CLL cells = test: Annexin-V death assay of freshly isolated primary CLL cells; format: cell-based, human
Procedure: Cells were stained with fluorescent conjugates of Annexin-V (BioVision) and propidium iodide (PI) and analyzed on a FACSCalibur machine (Becton-Dickinson).
15 ml of blood in heparin treated tubes was obtained from each anonymous CLL patient and processed without freezing. Equal volume of media (RPMI medium, 10% […], supplemented with […] and 10 mg/ml transferrin) was mixed with each sample and CLL cells isolated by centrifugation through Ficoll-PAQUE Plus (Amersham). Cells were washed twice in media and cultured at a density of 2.0×10^6 cells/ml for up to 48 hours. Samples for FIG. 11A were obtained from 24 consecutive patients identified with WBC >50,000/μl. All guidelines and regulations were followed in accordance with IRB protocols #99-224 (Dana-Farber Cancer Institute). Normal PBMC's were obtained from tubing discarded following platelet donation by anonymous normal donors and processed as above, except cultured without insulin and transferrin.
Experimental replicates were performed using lysates or mitochondria from different CLL samples. In main body, where a P value is given, it was obtained by using a two-tailed Students t-test, and P<0.05 was considered statistically significant. GraphPad Prism software was used to determine EC50 values by non-linear dose-response curve fitting and to perform Mann-Whitney nonparametric testing in Table 5.
Freshly isolated primary CLL cells were incubated with ABT-737 or negative control enantiomer. After 48 hours, death was assessed using Annexin-V staining.

[2] = FL5.12-BCL-2 cells deprived of IL-3 for 24 hours, peptides 10 μM

## CC(C)C[C@H](NC(=O)[C@H](C)NC(=O)[C@H](CCCCN)NC(=O)[C@H](CC(C)C)NC(=O)[C@H](CCCNC(=N)N)NC(=O)[C@H](C)NC(=O)[C@H](C)NC(=O)[C@@H](NC(=O)[C@H](CC(C)C)NC(=O)[C@H](CCC(N)=O)NC(=O)[C@H](C)NC(=O)[C@H](C)NC(=O)[C@H](CO)NC(=O)[C@H](CO)NC(=O)CCCCCNC(=S)Nc1ccc2c(c1)C(=O)OC21c2ccc(O)cc2Oc2cc(O)ccc21)[C@@H](C)O)C(=O)NCC(=O)N[C@@H](CC(=O)O)C(=O)N[C@@H](CCC(=O)O)C(=O)N[C@@H](CC(C)C)C(=O)N[C@@H](Cc1c[nH]cn1)C(=O)N[C@@H](CCC(N)=O)C(=O)O [HRK]
Mouse liver mitochondria
  cytochrome c release by peptide alone: none of the sensitizer BH3 peptides by themselves can induce cytochrome c release significantly above background
CLL mitochondria
  cytochrome c release: do not

## CC[C@H](C)[C@H](NC(=O)[C@H](CC(N)=O)NC(=O)[C@H](CCCNC(=N)N)NC(=O)[C@@H](NC(=O)[C@@H](NC(=O)[C@H](CC(=O)O)NC(=O)[C@H](CCC(=O)O)NC(=O)CCCCCNC(=S)Nc1ccc2c(c1)C(=O)OC21c2ccc(O)cc2Oc2cc(O)ccc21)[C@@H](C)CC)[C@@H](C)CC)C(=O)N[C@@H](C)C(=O)N[C@@H](CCCNC(=N)N)C(=O)N[C@@H](Cc1c[nH]cn1)C(=O)N[C@@H](CC(C)C)C(=O)N[C@@H](C)C(=O)N[C@@H](CCC(N)=O)C(=O)N[C@H](C(=O)NCC(=O)N[C@@H](CC(=O)O)C(=O)N[C@@H](CO)C(=O)N[C@@H](CCSC)C(=O)N[C@@H](CC(=O)O)C(=O)N[C@@H](CCCNC(=N)N)C(=O)O)C(C)C [BID]
[1]; [2]
  cytochrome c release: sensitivity to 10 μM BID BH3 is restored
[1]; FL5.12-BCL-2 cells with IL-3, peptides 10 μM
  cytochrome c release: BCL-2 overexpression inhibits release
[1]; wt FL5.12 cells with IL-3, peptides 10 uM
  cytochrome c release: potently induce cytochrome c release
SU-DHL8
  mitochondrial sensitivity to BH3 peptide: responding strongly

## CC[C@H](C)[C@H](NC(=O)[C@H](CC(C)C)NC(=O)[C@H](CCC(N)=O)NC(=O)[C@H](CC(C)C)NC(=O)[C@H](CCCCN)NC(=O)[C@H](CCCNC(=N)N)NC(=O)[C@H](C)NC(=O)[C@@H](NC(=O)[C@H](CCC(N)=O)NC(=O)[C@@H](NC(=O)[C@H](CCC(=O)O)NC(=O)[C@H](C)NC(=O)[C@H](CCC(N)=O)NC(=O)[C@H](Cc1c[nH]cn1)NC(=O)CCCCCNC(=S)Nc1ccc2c(c1)C(=O)OC21c2ccc(O)cc2Oc2cc(O)ccc21)C(C)C)[C@@H](C)CC)C(=O)N[C@@H](C)C(=O)N[C@@H](CC(=O)O)C(=O)N[C@@H](CCC(N)=O)C(=O)N[C@@H](Cc1ccccc1)C(=O)N[C@@H](Cc1c[nH]cn1)C(=O)N[C@@H](CCCNC(=N)N)C(=O)O [BMF]
Mouse liver mitochondria
  cytochrome c release by peptide alone: none of the sensitizer BH3 peptides by themselves can induce cytochrome c release significantly above background
SU-DHL6
  mitochondrial sensitivity to BH3 peptide: strong
CLL mitochondria
  cytochrome c release: induce cytochrome c release
Leukemic mitochondria
  cytochrome c release: capable of inducing near total cytochrome c release

## BH3 domain peptide of BNIP3-a, VVEGEKEVEALKKSADWVSD (SEQ ID NO: 9) (not fully specified (N-terminus))
Mouse liver mitochondria
  cytochrome c release by peptide alone: none of the sensitizer BH3 peptides by themselves can induce cytochrome c release significantly above background
CLL mitochondria
  cytochrome c release: do not

## COC(=O)C[C@H](NC(=O)[C@H](C)NC(=O)[C@@H](NC(=O)OCc1ccccc1)C(C)C)C(=O)CF [ZVAD-fmk] (Cbz-Val-Ala-Asp(OMe)-CH2F)
CLL cells; co-treatment, 200 μM
  protection against ABT-737-induced death: protects against ABT-737-induced death

## CN(C)CC[C@@H](CSc1ccccc1)Nc1ccc(S(=O)(=O)NC(=O)c2ccc(N3CCN(Cc4ccccc4-c4ccc(Cl)cc4)CC3)cc2)cc1[N+](=O)[O-] [NCE]
CLL cells; twenty-four CLL samples, 48 hours, read-out: mean EC50, apoptosis of CLL cells
  EC50: 574 nM

## second BH3 domain peptide of murine NOXA, PADLKDECAQLRRIGDKVNL (SEQ ID NO: 7) (not fully specified (N-terminus)) [NOXA B]
Mouse liver mitochondria
  cytochrome c release by peptide alone: none of the sensitizer BH3 peptides by themselves can induce cytochrome c release significantly above background

## BADmut: point mutant (L→A) of BAD BH3, LWAAQRYGREARRMSDEFEGSFKGL (SEQ ID NO: 13), negative control (Chemically synthesized primer)
CLL mitochondria
  cytochrome c release: do not

## CC[C@H](C)[C@H](NC(=O)[C@H](CS)NC(=O)[C@H](C)NC(=O)[C@H](CC(C)C)NC(=O)[C@H](CCCNC(=N)N)NC(=O)[C@H](CC(C)C)NC(=O)[C@H](C)NC(=O)[C@H](CC(C)C)NC(=O)[C@H](C)NC(=O)[C@H](CC(=O)O)NC(=O)[C@H](CO)NC(=O)CNC(=O)[C@H](CCC(=O)O)NC(=O)[C@H](CCSC)NC(=O)CCCCCNC(=S)Nc1ccc2c(c1)C(=O)OC21c2ccc(O)cc2Oc2cc(O)ccc21)C(=O)NCC(=O)N[C@@H](CC(=O)O)C(=O)N[C@@H](CCC(=O)O)C(=O)N[C@@H](CCSC)C(=O)N[C@@H](CC(=O)O)C(=O)N[C@H](C(=O)O)C(C)C [BIK]
Mouse liver mitochondria
  cytochrome c release by peptide alone: none of the sensitizer BH3 peptides by themselves can induce cytochrome c release significantly above background
[1]; [2]
  cytochrome c release: does not induce cytochrome c release
Leukemic mitochondria
  cytochrome c release: capable of inducing near total cytochrome c release
